The source of these data is ChEMBL document CHEMBL3045325, “Comparative Studies of Elicitors That Induce Phytoalexin in Oats” (1996).

Calls of active or inactive are those of the source. No cut-off for these calls is given here.

For assay [1], the system named is Avena sativa. Put plainly: Induction of phytoalexin secretion in Avena sativa Pc-2 leaf lower epidermis assessed as amount of avenanthramide A at 1 ng/ml by HPLC analysis relative to control. It is filed as functional.
In assay [2] the test system is Avena sativa. Put plainly: Induction of electrolyte leakage in Avena sativa Pc-2 leaf lower epidermis at 1 ng/ml after 24 hr in presence of CaCl2. It is filed as functional, organism-based.
For assay [3], the system named is Avena sativa. Put plainly: Induction of phytoalexin secretion in Avena sativa Pc-2 leaf lower epidermis assessed as amount of avenanthramide L at 1 ng/ml by HPLC analysis relative to control. It is filed as functional.
The subject of assay [4] is Avena sativa. The assay can be described thus: Induction of phytoalexin avenanthramide A secretion in Avena sativa Pc-2 leaf lower epidermis at 100 ng/ml after 24 hr. Format: functional, organism-based.
Assay [5] relates to Avena sativa. Put plainly: Induction of electrolyte leakage in Avena sativa Pc-2 leaf lower epidermis at 1 ng/ml after 24 hr by conductivity test. It is filed as functional, organism-based.
Assay [6] relates to Avena sativa. The assay can be described thus: Induction of phytoalexin avenanthramide A secretion in Avena sativa Pc-2 leaf lower epidermis at 1 ng/ml after 24 hr in presence of CaCl2. Format: functional, organism-based.
The test system of assay [7] is Avena sativa. The assay can be described thus: Induction of phytoalexin avenanthramide A secretion in Avena sativa Pc-2 leaf lower epidermis at 5 mg/ml after 24 hr. Format: functional, organism-based.
Assay [8] concerns Avena sativa. Put plainly: Induction of phytoalexin secretion in Avena sativa Pc-2 leaf lower epidermis assessed as amount of avenanthramide D at 1 ng/ml by HPLC analysis relative to control. It is filed as functional.
Assay [9] relates to Avena sativa. The assay can be described thus: Induction of phytoalexin secretion in Avena sativa Pc-2 leaf lower epidermis assessed as amount of avenanthramide G at 1 ng/ml by HPLC analysis relative to control. It is filed as functional.
The subject of assay [10] is Avena sativa. Put plainly: Induction of phytoalexin avenanthramide A secretion in Avena sativa Shokan-1 leaf lower epidermis at 1 mg/ml after 24 hr. It is filed as functional, organism-based.
The test system of assay [11] is Avena sativa. The assay can be described thus: Induction of phytoalexin secretion in Avena sativa Shokan-1 leaf lower epidermis assessed as amount of avenanthramide D at 1 mg/ml by HPLC analysis relative to control. It is filed as functional.
Assay [12] deals with Avena sativa. Put plainly: Induction of phytoalexin secretion in Avena sativa Pc-2 leaf lower epidermis assessed as amount of avenanthramide L at 1 mg/ml by HPLC analysis relative to control. It is filed as functional, organism-based.
The test system of assay [13] is Avena sativa. Put plainly: Induction of electrolyte leakage in Avena sativa Shokan-1 leaf lower epidermis at 1 mg/ml after 24 hr by conductivity test. It is filed as functional, organism-based.
Assay [14] has as its system Avena sativa. The assay can be described thus: Induction of phytoalexin avenanthramide A secretion in Avena sativa Shokan-1 leaf lower epidermis at 1 mg/ml upto 24 hr. It is filed as functional, organism-based.
Assay [15] has as its system Avena sativa. Put plainly: Induction of phytoalexin secretion in Avena sativa Shokan-1 leaf lower epidermis assessed as amount of avenanthramide B at 1 mg/ml by HPLC analysis relative to control. Format: functional.
Assay [16] relates to Avena sativa. The assay can be described thus: Induction of phytoalexin secretion in Avena sativa Shokan-1 leaf lower epidermis assessed as amount of avenanthramide A at 1 mg/ml by HPLC analysis relative to control. It is filed as functional.
Assay [17] has as its system Avena sativa. The assay can be described thus: Induction of phytoalexin secretion in Avena sativa Pc-2 leaf lower epidermis assessed as amount of avenanthramide B at 1 mg/ml by HPLC analysis relative to control. It is filed as functional, organism-based.
Assay [18] deals with Avena sativa. The assay can be described thus: Induction of phytoalexin secretion in Avena sativa Shokan-1 leaf lower epidermis assessed as amount of avenanthramide G at 1 mg/ml by HPLC analysis relative to control. Format: functional.
Assay [19] has as its system Avena sativa. The assay can be described thus: Induction of phytoalexin secretion in Avena sativa Pc-2 leaf lower epidermis assessed as amount of avenanthramide G at 1 mg/ml by HPLC analysis relative to control. It is filed as functional, organism-based.
The test system of assay [20] is Avena sativa. Put plainly: Induction of phytoalexin secretion in Avena sativa Shokan-1 leaf lower epidermis assessed as amount of avenanthramide L at 1 mg/ml by HPLC analysis relative to control. It is filed as functional.
The subject of assay [21] is Avena sativa. Put plainly: Induction of phytoalexin secretion in Avena sativa Pc-2 leaf lower epidermis assessed as amount of avenanthramide A at 1 mg/ml by HPLC analysis relative to control. It is filed as functional, organism-based.
Assay [22] concerns Avena sativa. The assay can be described thus: Induction of phytoalexin secretion in Avena sativa Pc-2 leaf lower epidermis assessed as amount of avenanthramide D at 1 mg/ml by HPLC analysis relative to control. Format: functional, organism-based.
Assay [23] relates to Avena sativa. The assay can be described thus: Induction of phytoalexin avenanthramide A secretion in Avena sativa Shokan-1 leaf lower epidermis at 1 mg/ml after 24 hr in presence of CaCl2. Format: functional, organism-based.
Assay [24] relates to Avena sativa. Put plainly: Induction of phytoalexin secretion in Avena sativa Pc-2 leaf lower epidermis assessed as amount of avenanthramide A at 0.1 mg/ml by HPLC analysis relative to control. It is filed as functional, organism-based.
In assay [25] the test system is Avena sativa. The assay can be described thus: Induction of phytoalexin avenanthramide A secretion in Avena sativa Shokan-1 leaf lower epidermis at 0.1 mg/ml after 24 hr in presence of CaCl2. It is filed as functional, organism-based.
Assay [26] has as its system Avena sativa. Put plainly: Induction of phytoalexin secretion in Avena sativa Shokan-1 leaf lower epidermis assessed as amount of avenanthramide G at 0.1 mg/ml by HPLC analysis relative to control. Format: functional.
Assay [27] relates to Avena sativa. Put plainly: Induction of phytoalexin secretion in Avena sativa Shokan-1 leaf lower epidermis assessed as amount of avenanthramide A at 0.1 mg/ml by HPLC analysis relative to control. Format: functional.
Assay [28] relates to Avena sativa. The assay can be described thus: Induction of phytoalexin secretion in Avena sativa Shokan-1 leaf lower epidermis assessed as amount of avenanthramide D at 0.1 mg/ml by HPLC analysis relative to control. Format: functional.
Assay [29] concerns Avena sativa. Put plainly: Induction of phytoalexin secretion in Avena sativa Pc-2 leaf lower epidermis assessed as amount of avenanthramide L at 0.1 mg/ml by HPLC analysis relative to control. It is filed as functional, organism-based.
Assay [30] relates to Avena sativa. The assay can be described thus: Induction of phytoalexin secretion in Avena sativa Shokan-1 leaf lower epidermis assessed as amount of avenanthramide L at 0.1 mg/ml by HPLC analysis relative to control. Format: functional.
For assay [31], the system named is Avena sativa. The assay can be described thus: Induction of electrolyte leakage in Avena sativa Shokan-1 leaf lower epidermis at 0.1 mg/ml after 24 hr by conductivity test. It is filed as functional, organism-based.
For assay [32], the system named is Avena sativa. The assay can be described thus: Induction of phytoalexin secretion in Avena sativa Pc-2 leaf lower epidermis assessed as amount of avenanthramide G at 0.1 mg/ml by HPLC analysis relative to control. Format: functional, organism-based.
The subject of assay [33] is Avena sativa. Put plainly: Induction of phytoalexin secretion in Avena sativa Pc-2 leaf lower epidermis assessed as amount of avenanthramide B at 0.1 mg/ml by HPLC analysis relative to control. It is filed as functional, organism-based.
For assay [34], the system named is Avena sativa. The assay can be described thus: Induction of phytoalexin secretion in Avena sativa Pc-2 leaf lower epidermis assessed as amount of avenanthramide D at 0.1 mg/ml by HPLC analysis relative to control. Format: functional, organism-based.
Assay [35] relates to Avena sativa. Put plainly: Induction of phytoalexin secretion in Avena sativa Shokan-1 leaf lower epidermis assessed as amount of avenanthramide B at 0.1 mg/ml by HPLC analysis relative to control. Format: functional.

As for `CC(C)C1OC2=C(CC(C(=O)O)NC(=O)/C(=C/Cl)NC(=O)C1NC(=O)C(NC(=O)C(CC(C)C(Cl)Cl)NC(=O)C(O)O)C(O)CCCN)C(=O)CC2` (stereo not given) [VICTORIN D], the “fold change (FC)” value in the assay on Avena sativa [1] is recorded as 100; with Avena sativa [3], 3; in the assay with Avena sativa [8] it was 38.4; with Avena sativa [9] it was 84.6. The outcome in the assay with Avena sativa [2], in the assay on Avena sativa [6] and in the assay with Avena sativa [7] was inactive. Moreover, the outcome in the assay on Avena sativa [4] and in the assay on Avena sativa [5] was Active.

Regarding `CC(=O)N[C@H]1[C@H](O[C@H]2[C@H](O)[C@@H](NC(C)=O)[C@H](O[C@H]3[C@H](O)[C@@H](NC(C)=O)C(O)O[C@@H]3CO)O[C@@H]2CO)O[C@H](CO)[C@@H](O[C@@H]2O[C@H](CO)[C@@H](O[C@@H]3O[C@H](CO)[C@@H](O)[C@H](O)[C@H]3NC(C)=O)[C@H](O)[C@H]2NC(C)=O)[C@@H]1O` (stereo not given in full) [N-ACETYLCHITOPENTAOSE], the result with Avena sativa [10], in the assay on Avena sativa [12], with Avena sativa [13], in the assay on Avena sativa [17], with Avena sativa [19] and with Avena sativa [21] was inactive. Further, the outcome in the assay on Avena sativa [22] and in the assay on Avena sativa [23] was inactive. The “fold change (FC)” value turned out to be 1.9 in the assay on Avena sativa [11]; 26 with Avena sativa [15]; 100 in the assay on Avena sativa [16]; 2.8 with Avena sativa [18]; 20.4 with Avena sativa [20]. Moreover, the result with Avena sativa [14] was Active.

Regarding `N[C@H]1[C@H](O[C@H]2[C@H](O)[C@@H](N)[C@H](O[C@H]3[C@H](O)[C@@H](N)[C@H](O[C@H]4[C@H](O)[C@@H](N)[C@H](O[C@H]5[C@H](O)[C@@H](N)C(O)O[C@@H]5CO)O[C@@H]4CO)O[C@@H]3CO)O[C@@H]2CO)O[C@H](CO)[C@@H](O)[C@@H]1O` (stereo not given in full) [CHITOPENTAOSE], the result in the assay with Avena sativa [24], with Avena sativa [25], with Avena sativa [29], with Avena sativa [32], in the assay with Avena sativa [33] and with Avena sativa [34] was inactive. Further, the “fold change (FC)” value in the assay with Avena sativa [26] was found to be 13; with Avena sativa [27], 100; with Avena sativa [28], 10.7; in the assay on Avena sativa [30], 1.4; in the assay with Avena sativa [35] it was 3.4. In addition, in the assay with Avena sativa [31], the outcome was Active.
